Patent publication US12102648B2, “Orally-bioavailable nucleoside analogs” (priority 2021, dated 2024)
Like-named read-outs stand apart in the source and are kept apart here.

Assay: in vitro
Type: in vitro ADME
Conditions: human
Method in brief: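 Caco-2 monolayers cultured 19 days on inserts (TEER >600 […]); bidirectional A-to-B and B-to-A transport at 37° C over 90 min, samples quantified by LC/MS/MS. Papp, efflux ratio and recovery calculated; ER >2 flags potential efflux substrates.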

[1] = Caco-2 monolayer, apical to basolateral, 90-minute incubation, read-out: Papp, A-B
[2] = Caco-2 monolayer, basolateral to apical, 90-minute incubation, read-out: Papp, B-A
[3] = Caco-2 monolayer, ER>2 indicates potential efflux transporter substrate, read-out: ER (efflux ratio)

| SMILES | Papp A→B at 90 min (Caco-2) | Papp B→A at 90 min (Caco-2) | efflux ratio at 90 min (Caco-2) | Papp A→B at 90 min [1] | Papp B→A at 90 min [2] | efflux ratio at 90 min [3] |
| --- | --- | --- | --- | --- | --- | --- |
| CC(=O)Nc1ncnn2c([C@]3(C#N)O[C@H](COC(=O)CC4CCCCC4)[C@@H](OC(=O)[C@@H](N)C(C)C)[C@H]3O)ccc12 [Compound 348, (2R,3S,4R,5R)-5-(4-acetamidopyrrolo[2,1-f][1,2,4]triazin-7-yl)-5-cyano-2-((2-cyclohexylacetoxy)methyl)-4-hydroxytetrahydrofuran-3-yl L-valinate] | 4.3 nm/s | 130 nm/s | 30 | – | – | – |
| CC(C)C(=O)Nc1ncnn2c([C@]3(C#N)O[C@H](COC(=O)CC4CCCCC4)[C@@H](OC(=O)[C@@H](N)C(C)C)[C@H]3O)ccc12 [Compound 349, (2R,3S,4R,5R)-5-cyano-2-((2-cyclohexylacetoxy)methyl)-4-hydroxy-5-(4-isobutyramidopyrrolo[2,1-f][1,2,4]triazin-7-yl)tetrahydrofuran-3-yl L-valinate] | 19 nm/s | 100 nm/s | 5.6 | – | – | – |
| CCCC(=O)Nc1ncnn2c([C@]3(C#N)O[C@H](COC(=O)CC4CCCCC4)[C@@H](OC(=O)[C@@H](N)C(C)C)[C@H]3O)ccc12 [Compound 350, (2R,3S,4R,5R)-5-(4-butyramidopyrrolo[2,1-f][1,2,4]triazin-7-yl)-5-cyano-2-((2-cyclohexylacetoxy)methyl)-4-hydroxytetrahydrofuran-3-yl L-valinate] | 19 nm/s | 69 nm/s | 4.3 | – | – | – |
| CC(C)[C@H](N)C(=O)O[C@H]1[C@@H](OC(=O)[C@@H](N)C(C)C)[C@](C#N)(c2ccc3c(N)ncnn23)O[C@@H]1COC(=O)Cc1ccccc1 [Compound 351, (2R,3R,4R,5R)-2-(4-aminopyrrolo[2,1-f][1,2,4]triazin-7-yl)-2-cyano-5-((2-phenylacetoxy)methyl)tetrahydrofuran-3,4-diyl (2S,2'S)-bis(2-amino-3-methylbutanoate)] | – | – | – | 1.7 nm/s | 9.2 nm/s | 5.5 |
| N#C[C@@]1(c2ccc3c(NC(=O)[C@@H](N)Cc4ccc(F)cc4)ncnn23)O[C@H](COC(=O)CC2(N)CCCCC2)[C@@H](O)[C@H]1O [Compound 352, ((2R,3S,4R,5R)-5-(4-((S)-2-amino-3-(4-fluorophenyl)propanamido)pyrrolo[2,1-f][1,2,4]triazin-7-yl)-5-cyano-3,4-dihydroxytetrahydrofuran-2-yl)methyl 2-(1-aminocyclohexyl)acetate] | 2.5 nm/s | 14 nm/s | 5.7 | – | – | – |
| CCCC(=O)Nc1ncnn2c([C@]3(C#N)O[C@H](COC(=O)CC4(N)CCCCC4)[C@@H](O)[C@H]3O)ccc12 [Compound 354, ((2R,3S,4R,5R)-5-(4-butyramidopyrrolo[2,1-f][1,2,4]triazin-7-yl)-5-cyano-3,4-dihydroxytetrahydrofuran-2-yl)methyl 2-(1-aminocyclohexyl)acetate] | 100 nm/s | 30 nm/s | 0.29 | – | – | – |
| CC(=O)OCOC(=O)Nc1ncnn2c([C@]3(C#N)O[C@H](COC(=O)Cc4ccccc4)[C@@H](OC(=O)[C@@H](N)C(C)C)[C@H]3O)ccc12 [Compound 355, (2R,3S,4R,5R)-5-(4-(((acetoxymethoxy)carbonyl)amino)pyrrolo[2,1-f][1,2,4]triazin-7-yl)-5-cyano-4-hydroxy-2-((2-phenylacetoxy)methyl)tetrahydrofuran-3-yl L-valinate] | – | – | – | 15 nm/s | 4.9 nm/s | 0.33 |
| CC(C)[C@H](N)C(=O)O[C@H]1[C@@H](OC(=O)[C@@H](N)C(C)C)[C@](C#N)(c2ccc3c(N)ncnn23)O[C@@H]1COC(=O)CC1CCCCC1 [Compound 356, (2R,3R,4R,5R)-2-(4-aminopyrrolo[2,1-f][1,2,4]triazin-7-yl)-2-cyano-5-((2-cyclohexylacetoxy)methyl)tetrahydrofuran-3,4-diyl (2S,2'S)-bis(2-amino-3-methylbutanoate)] | 6 nm/s | 36 nm/s | 6 | – | – | – |
| CCCC(=O)Nc1ncnn2c([C@]3(C#N)O[C@H](COC(=O)[C@@H](N)C(C)C)[C@@H](OC(=O)CC)[C@H]3O)ccc12 [Compound 357, ((2R,3S,4R,5R)-5-(4-butyramidopyrrolo[2,1-f][1,2,4]triazin-7-yl)-5-cyano-4-hydroxy-3-(propionyloxy)tetrahydrofuran-2-yl)methyl L-valinate] | 31 nm/s | 60 nm/s | 1.9 | – | – | – |
| CC(=O)OCOC(=O)Nc1ncnn2c([C@]3(C#N)O[C@H](COC(=O)CC4CCCCC4)[C@@H](OC(=O)[C@@H](N)C(C)C)[C@H]3O)ccc12 [Compound 358, (2R,3S,4R,5R)-5-(4-(((acetoxymethoxy)carbonyl)amino)pyrrolo[2,1-f][1,2,4]triazin-7-yl)-5-cyano-2-((2-cyclohexylacetoxy)methyl)-4-hydroxytetrahydrofuran-3-yl L-valinate] | 3 nm/s | 1 nm/s | 0.33 | – | – | – |
| CC(C)[C@H](N)C(=O)O[C@H]1[C@@H](O)[C@](C#N)(c2ccc3c(NC(=O)OCOC(=O)C(C)(C)C)ncnn23)O[C@@H]1COC(=O)Cc1ccccc1 [Compound 360, (2R,3S,4R,5R)-5-cyano-4-hydroxy-2-((2-phenylacetoxy)methyl)-5-(4-((((pivaloyloxy)methoxy)carbonyl)amino)pyrrolo[2,1-f][1,2,4]triazin-7-yl)tetrahydrofuran-3-yl L-valinate] | – | – | – | 4.9 nm/s | 1.6 nm/s | 0.33 |
| CC(C)[C@H](N)C(=O)O[C@H]1[C@@H](O)[C@](C#N)(c2ccc3c(NC(=O)OCOC(=O)C(C)(C)C)ncnn23)O[C@@H]1COC(=O)CC1CCCCC1 [Compound 361, (2R,3S,4R,5R)-5-cyano-2-((2-cyclohexylacetoxy)methyl)-4-hydroxy-5-(4-((((pivaloyloxy)methoxy)carbonyl)amino)pyrrolo[2,1-f][1,2,4]triazin-7-yl)tetrahydrofuran-3-yl L-valinate] | 1.5 nm/s | 0.5 nm/s | 0.33 | – | – | – |
| CCC(=O)O[C@H]1[C@@H](O)[C@](C#N)(c2ccc3c(NC(=O)C(C)C)ncnn23)O[C@@H]1COC(=O)[C@@H](N)C(C)C [Compound 362, ((2R,3S,4R,5R)-5-cyano-4-hydroxy-5-(4-isobutyramidopyrrolo[2,1-f][1,2,4]triazin-7-yl)-3-(propionyloxy)tetrahydrofuran-2-yl)methyl L-valinate] | 46 nm/s | 67 nm/s | 1.5 | – | – | – |
| CC(=O)OCOC(=O)Nc1ncnn2c([C@]3(C#N)O[C@H](COC(=O)CC4(N)CCCCC4)[C@@H](O)[C@H]3O)ccc12 [Compound 363, ((2R,3S,4R,5R)-5-(4-(((acetoxymethoxy)carbonyl)amino)pyrrolo[2,1-f][1,2,4]triazin-7-yl)-5-cyano-3,4-dihydroxytetrahydrofuran-2-yl)methyl 2-(1-aminocyclohexyl)acetate] | 0.7 nm/s | 0.2 nm/s | 0.33 | – | – | – |
| CCC(=O)O[C@H]1[C@@H](O)[C@](C#N)(c2ccc3c(NC(=O)OCOC(C)=O)ncnn23)O[C@@H]1COC(=O)[C@@H](N)C(C)C [Compound 364, ((2R,3S,4R,5R)-5-(4-(((acetoxymethoxy)carbonyl)amino)pyrrolo[2,1-f][1,2,4]triazin-7-yl)-5-cyano-4-hydroxy-3-(propionyloxy)tetrahydrofuran-2-yl)methyl L-valinate] | 18 nm/s | 20 nm/s | 1.1 | – | – | – |
| CCC(=O)O[C@H]1[C@@H](O)[C@](C#N)(c2ccc3c(NC(=O)OCOC(=O)C(C)(C)C)ncnn23)O[C@@H]1COC(=O)[C@@H](N)C(C)C [Compound 365, ((2R,3S,4R,5R)-5-cyano-4-hydroxy-5-(4-((((pivaloyloxy)methoxy)carbonyl)amino)pyrrolo[2,1-f][1,2,4]triazin-7-yl)-3-(propionyloxy)tetrahydrofuran-2-yl)methyl L-valinate] | 15 nm/s | 41 nm/s | 2.8 | – | – | – |
| CC(=O)OCOC(=O)OC[C@H]1O[C@@](C#N)(c2ccc3c(NC(=O)[C@@H](N)Cc4ccc(F)cc4)ncnn23)[C@H](O)[C@@H]1O [Compound 366, (((((2R,3S,4R,5R)-5-(4-((S)-2-amino-3-(4-fluorophenyl)propanamido)pyrrolo[2,1-f][1,2,4]triazin-7-yl)-5-cyano-3,4-dihydroxytetrahydrofuran-2-yl)methoxy)carbonyl)oxy)methyl acetate] | 27 nm/s | 11 nm/s | 0.39 | – | – | – |
| CC(C)(C)C(=O)OCOC(=O)Nc1ncnn2c([C@]3(C#N)O[C@H](COC(=O)CC4(N)CCCCC4)[C@@H](O)[C@H]3O)ccc12 [Compound 367, (((7-((2R,3R,4S,5R)-5-((2-(1-aminocyclohexyl)acetoxy)methyl)-2-cyano-3,4-dihydroxytetrahydrofuran-2-yl)pyrrolo[2,1-f][1,2,4]triazin-4-yl)carbamoyl)oxy)methyl pivalate] | 28 nm/s | 16 nm/s | 0.57 | – | – | – |
| N#C[C@@]1(c2ccc3c(N)ncnn23)O[C@H](COC(=O)CC2(N)CCCCC2)[C@@H](OC(=O)CC2CCCCC2)[C@H]1O [Compound 368, (2R,3S,4R,5R)-2-((2-(1-aminocyclohexyl)acetoxy)methyl)-5-(4-aminopyrrolo[2,1-f][1,2,4]triazin-7-yl)-5-cyano-4-hydroxytetrahydrofuran-3-yl 2-cyclohexylacetate] | 14 nm/s | 180 nm/s | 13 | – | – | – |
